The source of these data is patent US20250235423A1, “USES OF AMINO ACID-CHELATED ZINC, INCLUDING IMMUNE REGULATION AND TREATMENT OF AUTOIMMUNE DISEASE” (FAAC Bio Inc., priority 2024, published 2025).

Assay [1] concerns IL12P70. In words: ELISA analysis of IL12P70 in the medium of treated BMDCs. In kind it is cell-based, mouse. The settings on record: BMDC media, all groups of the substance. As for the experimental part:
The secretion level of IL12P70 in immature DCs is very low, whereas mature DCs secret a large amount of IL12P70, allowing it an indicator of DC maturation. In this example, the expression levels of the surface markers (CD11c, CD40, CD83, CD86) on the BMDCs were analyzed using flow cytometry, and the secretion level of IL12p70 in the BMDCs' medium was measured with an ELISA kit, to observe the effects of amino acid-chelated zinc on dendritic cell maturation.
(§1) After culturing for 48 hours, the cells and their medium in each group were collected to conduct the following analysis, respectively.
The media obtained from each group were placed into tubes, respectively, and the tubes were centrifuged (400×g) at 4° C. for 10 minutes to collect the supernatants. The IL12p70 standard was subjected to a serial dilution to provide a standard curve. The standards at various concentrations and the supernatants obtained from each group were added into a 96-well plate pre-coating with IL12p70 antibodies (100 μL per well, in duplicate). […] The absorbance value at 450 nm (OD450) in each well was detected within 3 minutes. Based on the standard curve resulted from the absorbance values of IL12p70 standards at various concentrations, the IL12p70 amounts corresponding to the absorbance values of each group were calculated as shown in Table 2.
A general note: ELISA stands for enzyme-linked immunosorbent assay.

Assay [2] relates to mouse bone marrow dendritic cells (BMDCs). In words: Flow cytometry analysis of dendritic cell maturation surface markers on treated BMDCs. In kind it is cell-based. Conditions: for Ability to inhibit dendritic cell maturation: all zinc concentrations, directly proportional to the zinc concentration; for CD11c expression level / CD40 expression level / CD80 expression level / CD83 expression level / CD86 expression level / MHC II expression level: 48 hours. The protocol:
Mice were sacrificed with carbon dioxide and immersed in 75% alcohol. After immersing for 3 minutes, the mice were removed from the alcohol and wiped. Then, the mouse limbs were fixed on a Styrofoam board. Next, the entire femur and tibia were collected by carefully cutting off the mouse skin and muscle. A filter (100 μm) was placed in a 3-cm dish and 2 ml of RPMI-1640 medium was added into the dish. Two ends of the femur were cut, and the bone marrow was collected by repeatedly washing the femur with the cell medium using a 26 G syringe until the femur appeared white. The bone marrow in the tibia was also collected by the same method. The filter was scraped by the reverse side of 1 mL tip to break up the cell clumps in the bone marrow and washed with the cell medium in the dish several times. Then, the cell medium in the dish was collected and placed into a tube to centrifuge at 1500 rpm for 3 minutes. After centrifuging, the supernatant was removed and 1 mL of RBC lysis buffer was added into the tube. After standing for 5 minutes, the tube was centrifuged at 1500 rpm for 3 minutes again. After removing the supernatant, a milky-white pellet was obtained. The pellet was re-suspended with the DC medium and the cell number of the suspension thus obtained was counted.
The cell concentration of the suspension was adjusted to 5×10^5 cells per mL. 1 mL of the suspension was added into each well of a 24-well plate. The 24-well plate was incubated at 37.5° C. and 5% CO2 for 2 days. The unattached granulocytes were removed by carefully removing the cell medium, and then, 0.5 mL of DC medium was added into each well of the 24-well plate. After incubating 3 days, the medium in each well was replaced with 0.5 mL of fresh DC medium and continuously incubated for 3 days. The 24-well plate was taken out from the incubator, and the medium in each well was carefully removed. The bottom of each well was gently pipetted with 2 mL of PBS several times. The pipetted PBS was collected into a centrifuge tube to count the number of cells and analyze the expression level of CD11c using flow cytometry.
as §1
The cells obtained from (1-1) were counted and the cell concentration was adjusted with PBS to provide a cell suspension of 1×10^5 cells to 5×10^5 cells per 100 μL. 100 μL of the cell suspension was evenly mixed with 20 μL of FcR Blocking Reagent, and the mixture thus obtained was placed at 4° C. for 10 minutes. Furthermore, the antibodies of CD11c, CD40, CD80, CD83, CD86, MHC II and corresponding isotype control were added into the tubes containing the mixture, respectively. After vortexing for 1 second, the tubes were placed at room temperature in the dark for 15 minutes. Then, 300 μL of PBS was added into each tube, and after vortexing for 1 second, the tubes were centrifuged at 200×g for 5 minutes. The resulting supernatants were removed and the cells were re-suspended with 300 μL of PBS. Finally, the cell suspensions thus obtained were analyzed by flow cytometry, wherein all the cell suspension of each group were kept on ice in the dark until the analysis was conducted.
On the technique in general: Flow cytometry measures light scatter and fluorescence of single cells or particles in a stream.

Assay [3] concerns CIA rat. In words: Paw volume (average weight percentage of both paws) in collagen-induced arthritis (CIA) animal model. In kind it is in vivo, Lewis rats. The settings on record: for Weight percentages of the rats' paws on Day 24 (FIG. 4): Day 24, compared to the untreated CIA rats (p value<0.05); for Weight percentages of the rats' paws over time (FIG. 3): after administration from Day 17, compared to the CIA group. The protocol:
(§2) Lewis rats were bred under the condition with a temperature of 21° C. to 25° C., a humidity level of 40% to 70%, and a lighting period of 12 hours (7 a.m. to 7 p.m.). The rats had free access to the feed. All the rats were monitored for at least 6 days to ensure their health to prepare a collagen-induced arthritis (CIA) animal model.
(§3) A collagen emulsion was prepared by evenly mixing collagen and IFA at a volume ratio of 1:1 using a homogenizer in a cold water bath. On Day 1, 200 μL of the collagen emulsion was injected subcutaneously at the base of the rat's tail, followed by a booster injection of 100 μL of the collagen emulsion at a different site on the base of the tail on Day 8. All the rats successfully developed CIA by Day 17 (hereinafter referred to as “CIA rat”).
(§4) As described in Preparation example C, all the rats successfully developed CIA by Day 17. Therefore, the CIA rats were randomly divided into four groups from Day 17 to administer the following solutions until the rats were sacrificed on Day 24, wherein the healthy rats not to induce arthritis were served as the control group: • (1) Control group (five healthy rats): 2 mL of PBS; • (2) CIA group (five CIA rats): 2 mL of PBS; • (3) MTX group (three CIA rats): 1 mg of MTX per kilogram of rat, dissolved in 2 mL of PBS; • (4) CMC-Zn group (five CIA rats): CMC-Zn at a zinc concentration of 0.075 mg, dissolved in 2 mL of PBS; and • (5) Modified CMC-Zn group (five CIA rats): modified CMC-Zn at a zinc concentration of 0.075 mg, dissolved in 2 mL of PBS.
(§5) The rat's paws were observed and their paw volumes were measured on Days 0, 3, 7, 10, 14, 17, 21 and 24. The arthritis severity of rats was evaluated by using the qualitative scoring system of Table 3, and the paw volume was determined by the following approach in accordance with the buoyancy principle of Archimedes' law: adding an appropriate amount of water into a beaker; placing the beaker on a scale and resetting to zero; placing the rat's paw into the water and immersing it to the target depth; and recoding the reading once it had stabilized.

Assay [4] deals with CIA rat. Description: Arthritis severity score in collagen-induced arthritis (CIA) animal model. Further details: Arthritis severity score: scale not given here. Conditions: CIA rats; for Progression of arthritis severity after Day 17: compared to the CIA group. It is filed as in vivo, Lewis rats. The protocol:
as §2, §3, §4, §5

Where [5] appears, read: zinc concentration 3.27 mg/mL (low concentration).
Setting [6] is: zinc concentration 6.54 mg/mL (medium concentration).
Where [7] appears, read: zinc concentration 13.08 mg/mL (high concentration).
Setting [8] is: Day 0 (before administration, which starts Day 17).
Setting [9] is: Day 17 (start of administration).
Where [10] appears, read: Day 21, administered from Day 17.
The mark [11] stands for this setting: Day 24, administered from Day 17.

Regarding `O=S(=O)([O-])[O-].[Zn+2]` [Zinc sulfate, reference compound], the “IL12P70 in the media” value in assay [1] was “not detected”. In addition, the “Ability to inhibit dendritic cell maturation” value in assay [2] is reported as “demonstrated the ability to inhibit dendritic cell maturation”. In assay [2] (setting [5]), this molecule had a CD11c expression level of 87.2, a CD40 expression level of 16.1, a CD80 expression level of 46.7 and a CD83 expression level of 12.9. Further, in assay [2] (setting [5]), the CD86 expression level came out at 49.2 and the “MHC II expression level” value was 16.8. Also, in assay [2] (setting [6]), the CD11c expression level stood at 85.4, the CD40 expression level is recorded as 11.2, the CD80 expression level is on record as 37.2 and the CD83 expression level is given as 10.4. For the same molecule, in assay [2] (setting [6]), the CD86 expression level was found to be 41.3 and the “MHC II expression level” value is 11.9. In addition, in assay [2] (setting [7]), the CD11c expression level is on record as 85.6, the CD40 expression level is 8.5, the CD80 expression level was found to be 26.8 and the CD83 expression level was determined as 6.68. In assay [2] (setting [7]), the CD86 expression level is on record as 26 and the “MHC II expression level” value is recorded as 8.08.

With glycine-chelated zinc [CMC-Zn], the “Weight percentages of the rats' paws on Day 24 (FIG. 4)” value in assay [3] was “significantly decreased”. Also, the “Weight percentages of the rats' paws over time (FIG. 3)” value in assay [3] is on record as “gradually decreased”. Further, the “IL12P70 in the media” value in assay [1] was “not detected”. Moreover, in assay [2], the “Ability to inhibit dendritic cell maturation” value is recorded as “demonstrated the ability to inhibit dendritic cell maturation”. For the same molecule, in assay [2] (low and medium concentration), the “Expression levels of CD80 and CD86 compared to the groups of zinc sulfate” value is listed as “significantly decreased”. Moreover, the “Expression levels of the markers compared to the Immature DC group” value in assay [2] (low concentration (3.27 mg/mL zinc)) was “even lower”. Moreover, the CD11c expression level is on record as 88.3 in assay [2] (setting [5]), 87.8 in assay [2] (setting [6]) and 74.1 in assay [2] (setting [7]). Further, the CD40 expression level in assay [2] (setting [5]) is 25; in assay [2] (setting [6]), 13.1; in assay [2] (setting [7]) it was 6.24. Moreover, the values for the CD80 expression level in assay [2] (setting [5]), in assay [2] (setting [6]) and in assay [2] (setting [7]) were 39, 23.7 and 26.5, respectively. The CD83 expression level was 16.1 in assay [2] (setting [5]), 10.3 in assay [2] (setting [6]) and 4.38 in assay [2] (setting [7]). Further, the CD86 expression level in assay [2] (setting [5]) amounted to 37.9; in assay [2] (setting [6]) it was 23.1; in assay [2] (setting [7]), 25.4. The “MHC II expression level” value in assay [2] (setting [5]) was determined as 25; in assay [2] (setting [6]), 14; in assay [2] (setting [7]), 6.41. The Arthritis severity score in assay [4] (setting [8]) came to 0; in assay [4] (Day 3 (before administration)), 0; in assay [4] (Day 7 (before administration)), 0; in assay [4] (Day 10 (before administration)) it was 0; in assay [4] (Day 14 (before administration)) it was 0.4; in assay [4] (setting [9]), 3.8. The Arthritis severity score in assay [4] (setting [10]) was 4.4; in assay [4] (setting [11]), 4.6. Moreover, the “Progression of arthritis severity after Day 17” value in assay [4] is given as “slower progression or even reduction in arthritis severity”.

For `CN(Cc1cnc2nc(N)nc(N)c2n1)c1ccc(C(=O)N[C@@H](CCC(=O)O)C(=O)O)cc1` [MTX, Methotrexate, reference compound], the “Weight percentages of the rats' paws on Day 24 (FIG. 4)” value in assay [3] is listed as “significantly decreased”. For the same molecule, the “Weight percentages of the rats' paws over time (FIG. 3)” value in assay [3] was “gradually decreased”. The Arthritis severity score is reported as 0 in assay [4] (setting [8]); 0 in assay [4] (Day 3 (before administration)); 0 in assay [4] (Day 7 (before administration)); 0 in assay [4] (Day 10 (before administration)); 0.3 in assay [4] (Day 14 (before administration)); 3.7 in assay [4] (setting [9]). Further, the values for the Arthritis severity score in assay [4] (setting [10]) and in assay [4] (setting [11]) were 3.7 and 3, respectively. The “Progression of arthritis severity after Day 17” value in assay [4] was “slower progression or even reduction in arthritis severity”.
